Results as given in US20070059684A1 (UNIVERSITY OF MEDICINE AND DENTISTRY OF NEW JERSEY, published 2007).
Entries after “also recorded” stand apart in the source; their conditions may differ. Where two headings read alike, the source gives them in different places.

Assays:
translation = type: cell-based, Saccharomyces cerevisiae; details: JD88 cells, indicated drug concentrations, 30° C. 5 hrs
[1] = tested on: L-A, M1 and L-BC dsRNA viruses; type: cell-based, Saccharomyces cerevisiae; details: 72 hrs at 3.8 μM anisomycin; not confirmed by northern blot
From the text: FIG. 12. (A) A single non-killer (K^−) colony from each drug concentration in the 72 hr data set was picked at random and total nucleic acids (TNA) were extracted [Dinman and Wickner, Virology 66:3669 (1992)]. Approximately equal amounts of TNA were separated through a 1% non-denaturing TAE-agarose gel and stained with ethidium bromide. The 4.6 kb L-A and L-BC, and the 1.8 kb M1 dsRNA bands are indicated. (B) RNA was denatured in the gel shown in (A), transferred to nitrocellulose and hybridized with [^32P]CTP labeled L-A and M1 (+) strand RNA probes as described in [Dinman and Wickner, Genetics 136:75 (1994)].
To determine whether loss of the M1 satellite virus was responsible for loss of the killer phenotype, a non-killer (K^−) colony from each drug concentration in the 72 hr data set was picked at random and total nucleic acids (TNA) were extracted [Park et al., Virology 216:451 (1996)]. Approximately equal amourits of TNA were separated through a 1% non-denaturing TAE-agarose gel and stained with ethidium bromide (FIG. 12A). As expected, the 1.8 kb M1 dsRNA band is not present in the K^− (drug treated) samples. Further, L-A appears to have also been cured by these drugs. […]
Recently the cDNA sequence of L-BC (also known as La), a ubiquitous minor dsRNA virus of yeast has been determined [Park et al., supra]. […]

HIV = type: cell-based, human
human host cells = type: cell-based
Procedure: Antiviral activities of these antibiotics were also tested against HIV.

[2] = tested on: killer phenotype (M1 satellite virus); details: 3.8 μM anisomycin, after 48 or 72 hours, JD88 cells
Procedure: JD88 cells were cultured in rich medium containing the indicated concentrations of either anisomycin (A) or sparsomycin (B). After 24, 48, 72, 96, or 120 hrs., aliquots of cells were removed, washed twice with sterile water, streaked onto rich medium, and grown to single colonies at 30° C. These were then replica plated onto indicator plates, and scored for their killer phenotypes. Loss of the killer phenotype was measured by dividing the number of non-killer (K^−) colonies by the total number of colonies. Each data set corresponds to >100 total colonies.
After 24, 48, 72, 96, or 120 hrs., aliquots of cells were streaked for single colonies onto rich medium, which were then replica plated onto indicator to score their killer phenotypes.

nonsense mutations = details: 5 ug/ml, UPF1+ and UPF1− strains
Procedure: Effects of drugs at a concentration of 5 μg/ml on nonsense supression in UPF+ and UPF− strains.
UPF1+ and UPF1− strains were treated with 5 ug/ml sparsomycin, anisomycin, and paromomycin, and tested for nonsense suppression.

tcm1/mak8 mutants = details: cited from earlier work
[3] = tested on: Saccharomyces cerevisiae strains (wildtype, mof4-1); type: cell-based; details: 30° C. 4 days
Upf2p = biological target: T1, Upf2p (Saccharomyces cerevisiae, UniProt P38798 1-1089, limits assumed); assay: two-hybrid system
T1 construct: Tested in a two-hybrid system; also called product of the UPF2/IFS1 gene
T1 sequence (looked up): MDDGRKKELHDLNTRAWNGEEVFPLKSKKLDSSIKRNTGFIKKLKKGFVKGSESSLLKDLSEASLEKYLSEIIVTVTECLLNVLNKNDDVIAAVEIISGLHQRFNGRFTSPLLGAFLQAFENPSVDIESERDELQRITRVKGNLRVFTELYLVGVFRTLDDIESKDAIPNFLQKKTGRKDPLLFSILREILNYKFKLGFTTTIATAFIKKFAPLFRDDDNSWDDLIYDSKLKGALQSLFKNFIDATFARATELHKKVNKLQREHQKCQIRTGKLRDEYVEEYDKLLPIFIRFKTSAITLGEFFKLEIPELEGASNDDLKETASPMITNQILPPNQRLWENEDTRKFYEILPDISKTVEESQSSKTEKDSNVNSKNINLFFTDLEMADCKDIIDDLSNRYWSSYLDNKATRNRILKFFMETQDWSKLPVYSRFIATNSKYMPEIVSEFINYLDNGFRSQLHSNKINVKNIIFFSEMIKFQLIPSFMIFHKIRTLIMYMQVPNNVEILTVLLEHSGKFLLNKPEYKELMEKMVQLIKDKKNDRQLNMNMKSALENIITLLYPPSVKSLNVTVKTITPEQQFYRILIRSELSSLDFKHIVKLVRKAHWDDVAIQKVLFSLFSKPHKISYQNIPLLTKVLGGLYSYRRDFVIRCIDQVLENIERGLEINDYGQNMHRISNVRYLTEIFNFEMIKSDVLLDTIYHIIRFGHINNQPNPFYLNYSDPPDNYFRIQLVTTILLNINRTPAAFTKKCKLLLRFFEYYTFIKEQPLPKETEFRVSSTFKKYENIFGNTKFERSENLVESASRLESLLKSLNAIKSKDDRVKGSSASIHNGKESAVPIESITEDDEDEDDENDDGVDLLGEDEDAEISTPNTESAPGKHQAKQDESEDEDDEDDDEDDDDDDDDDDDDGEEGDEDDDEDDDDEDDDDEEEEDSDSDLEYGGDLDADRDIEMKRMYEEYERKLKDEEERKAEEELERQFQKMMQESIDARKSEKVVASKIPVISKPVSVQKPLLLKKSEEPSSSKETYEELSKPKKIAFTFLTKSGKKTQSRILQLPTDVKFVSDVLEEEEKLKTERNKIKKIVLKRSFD

Question: Which “overall translation (β-gal activities from pTI25) as percentage of the no drug controls” value (translation) does the source give for `COc1ccc(C[C@H]2NC[C@H](O)[C@H]2OC(C)=O)cc1` [anisomycin] here?
Answer: Its value is ≥ 80%.

Question: And the “L-BC dsRNA band” value [1]?
Answer: The value was “appears to missing”.

Question: What about the “titers of HIV” value (HIV) of the same molecule?
Answer: Its value is “decrease titers of HIV”.

Question: And the “HIV viral titers as % of the no drug controls” value (HIV; anisomycin at concentrations 1500-fold lower than MIC, 4 days)?
Answer: The value was “approximately 30%”.

Question: And the “antiviral concentration relative to the MIC (fold lower)” value (HIV; concentration giving approximately 30% HIV titer)?
Answer: The value was 1500.

Question: And the “minimum inhibitory concentration (MIC)” value (human host cells)?
Answer: Its value is “about 1.5 ug/ml”.

Question: What about the “loss of the killer phenotype (non-killer colonies / total colony forming units)” value [2] of the same molecule?
Answer: Its value is “approximately 53%”.

Question: And the nonsense suppression (nonsense mutations)?
Answer: The nonsense suppression was “able to suppress nonsense mutations”.

Question: What about the “effectiveness in tcm1/mak8 mutants” value (tcm1/mak8 mutants) of the same molecule?
Answer: Its value is “resistant; also recorded: ineffective”.

Question: Which results are given for `NC[C@@H]1O[C@H](O[C@H]2[C@@H](O)[C@H](O[C@@H]3[C@@H](O)[C@H](N)C[C@H](N)[C@H]3O[C@H]3O[C@H](CO)[C@@H](O)[C@H](O)[C@H]3N)O[C@@H]2CO)[C@H](N)[C@@H](O)[C@@H]1O` [paromomycin]?
Answer: PAROMOMYCIN SENSITIVITY (diameter of the zone of growth inhibition) ([3]; strain Wildtype (MOF+UPF+), disc 1.0 mg paromomycin, media lacking leucine): 0.7 cm; PAROMOMYCIN SENSITIVITY (diameter of the zone of growth inhibition) ([3]; strain mof4-1 (UPF1::URA3) + pmof4XAB, disc 1.0 mg, media lacking uracil and leucine): 1.6 cm; PAROMOMYCIN SENSITIVITY (diameter of the zone of growth inhibition) ([3]; strain mof4-1 (UPF1::URA3) + pmof4XAE, disc 1.0 mg, media lacking uracil and leucine): 2.3 cm; PAROMOMYCIN SENSITIVITY (diameter of the zone of growth inhibition) ([3]; strain mof4-1 (UPF1::URA3) + vector, disc 1.0 mg, media lacking uracil and leucine): 1.7 cm; PAROMOMYCIN SENSITIVITY (diameter of the zone of growth inhibition) ([3]; strain mof4-1 + pYCpUPF1, disc 1.0 mg, media lacking uracil and leucine): 1.6 cm; PAROMOMYCIN SENSITIVITY (diameter of the zone of growth inhibition) ([3]; strain mof4-1 + vector, disc 1.0 mg, media lacking uracil and leucine): 2.4 cm; PAROMOMYCIN SENSITIVITY (diameter of the zone of growth inhibition) ([3]; strain mof4-1, disc 1.0 mg paromomycin, media lacking leucine): 2.0 cm; nonsense suppression (nonsense mutations): able to suppress nonsense mutations

B1: Upf3p (other, Saccharomyces cerevisiae, UniProt P48412 1-387, looked up)
chain: MSNVAGELKNSEGKKKGRGNRYHNKNRGKSKNETVDPKKNENKVNNATNATHNNSKGRRNNKKRNREYYNYKRKARLGKSTENEGFKLVIRLLPPNLTADEFFAILRDNNNDDGDKQDIQGKLKYSDWCFFEGHYSSKVFKNSTYSRCNFLFDNLSDLEKCANFIKTCKFIDNKDNITIPDMKLSPYVKKFTQTSKKDAALVGTIEEDEIFKTFMNSMKQLNENDEYSFQDFSVLKSLEKEFSKSIELENKIAERTERVLTELVGTGDKVKNKNKKKKNKNAKKKFKEEEASAKIPKKKRNRGKKKRENREKSTISKTKNSNVVIIEEAGKEVLKQRKKKMLLQEKLKISNSSQPQSSSAQTQPSFQPKENLFVPRVKILHRDDTKK
notes: Tested in a two-hybrid system; also called product of the UPF3 gene
Question: Does B1 bind (Upf2p)?
Answer: Result: binds

B2: Upf1p (other, Saccharomyces cerevisiae, UniProt P30771 1-971, looked up)
chain: MVGSGSHTPYDISNSPSDVNVQPATQLNSTLVEDDDVDNQLFEEAQVTETGFRSPSASDNSCAYCGIDSAKCVIKCNSCKKWFCNTKNGTSSSHIVNHLVLSHHNVVSLHPDSDLGDTVLECYNCGRKNVFLLGFVSAKSEAVVVLLCRIPCAQTKNANWDTDQWQPLIEDRQLLSWVAEQPTEEEKLKARLITPSQISKLEAKWRSNKDATINDIDAPEEQEAIPPLLLRYQDAYEYQRSYGPLIKLEADYDKQLKESQALEHISVSWSLALNNRHLASFTLSTFESNELKVAIGDEMILWYSGMQHPDWEGRGYIVRLPNSFQDTFTLELKPSKTPPPTHLTTGFTAEFIWKGTSYDRMQDALKKFAIDKKSISGYLYYKILGHQVVDISFDVPLPKEFSIPNFAQLNSSQSNAVSHVLQRPLSLIQGPPGTGKTVTSATIVYHLSKIHKDRILVCAPSNVAVDHLAAKLRDLGLKVVRLTAKSREDVESSVSNLALHNLVGRGAKGELKNLLKLKDEVGELSASDTKRFVKLVRKTEAEILNKADVVCCTCVGAGDKRLDTKFRTVLIDESTQASEPECLIPIVKGAKQVILVGDHQQLGPVILERKAADAGLKQSLFERLISLGHVPIRLEVQYRMNPYLSEFPSNMFYEGSLQNGVTIEQRTVPNSKFPWPIRGIPMMFWANYGREEISANGTSFLNRIEAMNCERIITKLFRDGVKPEQIGVITPYEGQRAYILQYMQMNGSLDKDLYIKVEVASVDAFQGREKDYIILSCVRANEQQAIGFLRDPRRLNVGLTRAKYGLVILGNPRSLARNTLWNHLLIHFREKGCLVEGTLDNLQLCTVQLVRPQPRKTERPMNAQFNVESEMGDFPKFQDFDAQSMVSFSGQIGDFGNAFVDNTELSSYINNEYWNFENFKSAFSQKQNRNEIDDRNLYQEEASHLNSNFARELQREEQKHELSKDFSNLGI
notes: Tested in a two-hybrid system; also called Upf1 protein; product of the UPF1/IFS2/MOF4 gene
Question: Does B2 bind (Upf2p)?
Answer: Result: binds
